molecular target: human mGluR5A (Homo sapiens (Human), UniProt P41594); experiment: mGluR5 FLIPR Assay; type: cell-based; conditions: positive modulator activity, HEK293 (ZF) cells with human mGluR5A and rat GLAST, Ca++ response to ~EC10 l-glutamate
Protocol: HEK293 (ZF) cells stably transfected with human mGluR5A (pIRES neo) and the rat glutamate-aspartate transporter (GLAST; pIRES puro) are grown in a monolayer culture at 37° C. in 5% CO2 and fed with Minimum Essential Medium (MEM) supplemented with 10% dialysed fetal bovine serum. […] Plates are incubated in dye at 37° C. in 5% CO2 for 60 minutes prior to delivery of test compounds in assay buffer. Test compounds are incubated with cells in the presence of dye for 10 minutes prior to being read on the FLIPR platform (Molecular Devices). A Ca^++ signal is induced in the assay plates via the delivery of an ˜EC10 concentration of the endogenous agonist 1-glutamate; images are acquired at 1 Hz for 100 seconds post-delivery of agonist stimulus. Positive modulator activity (i.e. the ability of test compounds to increase the Ca^++ response to a sub-maximal concentration of agonist) is normalized to a saturating concentration of a known mGluR5 PAM run in each assay plate. An EC50 concentration of test compounds is derived from 4-parameter logistic curve fits of transformed fluoresence data via proprietary software suite.

Sequence of human mGluR5A (P41594 other isoform, or with tags, fused parts or gaps): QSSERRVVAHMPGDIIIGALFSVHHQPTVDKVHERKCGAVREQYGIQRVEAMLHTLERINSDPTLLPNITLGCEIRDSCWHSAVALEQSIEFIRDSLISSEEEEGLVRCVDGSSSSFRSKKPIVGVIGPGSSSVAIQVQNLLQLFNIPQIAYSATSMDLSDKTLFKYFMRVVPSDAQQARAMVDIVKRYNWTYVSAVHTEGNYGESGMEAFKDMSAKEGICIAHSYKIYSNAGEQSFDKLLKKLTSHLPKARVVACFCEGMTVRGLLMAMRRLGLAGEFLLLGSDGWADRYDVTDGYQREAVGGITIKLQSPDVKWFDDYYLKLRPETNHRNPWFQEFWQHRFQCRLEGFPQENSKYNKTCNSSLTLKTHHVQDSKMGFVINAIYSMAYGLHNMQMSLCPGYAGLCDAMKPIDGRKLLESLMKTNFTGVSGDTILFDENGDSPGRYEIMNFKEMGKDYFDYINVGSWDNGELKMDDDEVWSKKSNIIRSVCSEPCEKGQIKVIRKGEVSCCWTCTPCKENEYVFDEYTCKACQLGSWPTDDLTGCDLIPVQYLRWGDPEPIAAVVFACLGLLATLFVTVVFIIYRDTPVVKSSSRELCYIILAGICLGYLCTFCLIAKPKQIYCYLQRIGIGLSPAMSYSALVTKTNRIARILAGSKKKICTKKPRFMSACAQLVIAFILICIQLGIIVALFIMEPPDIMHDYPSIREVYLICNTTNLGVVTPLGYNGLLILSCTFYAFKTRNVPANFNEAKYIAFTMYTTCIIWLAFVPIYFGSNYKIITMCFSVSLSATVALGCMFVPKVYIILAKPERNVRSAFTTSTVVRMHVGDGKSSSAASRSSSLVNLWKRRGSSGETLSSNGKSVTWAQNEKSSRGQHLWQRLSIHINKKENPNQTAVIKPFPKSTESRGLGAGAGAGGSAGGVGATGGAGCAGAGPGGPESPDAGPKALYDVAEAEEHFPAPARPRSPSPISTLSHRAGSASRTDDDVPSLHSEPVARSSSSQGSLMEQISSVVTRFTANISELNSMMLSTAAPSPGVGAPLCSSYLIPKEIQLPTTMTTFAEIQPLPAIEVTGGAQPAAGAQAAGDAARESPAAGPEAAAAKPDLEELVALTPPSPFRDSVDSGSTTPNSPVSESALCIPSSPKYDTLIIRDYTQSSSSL

First: CN(C)CCC#Cc1cncc([C@H]2NC(=O)O[C@@H]2c2cccc(F)c2)c1 [Example 44]
Second: CN(C)CC#Cc1cncc([C@H]2NC(=O)O[C@@H]2c2cccc(F)c2)c1 [Example 79, (4R,5R)-4-(5-(3-(Dimethylamino)prop-1-yn-1-yl)pyridin-3-yl)-5-(3-fluorophenyl)oxazolidin-2-one]
The EC50 of the first is higher: greater than 1610 nM for the first, 463 nM for the second.

`O=C1N[C@H](c2ccnc(C#CC3CC(F)(F)C3)c2)[C@@H](c2ccccc2)O1` [Example 114, (4R,5R)-4-(2-((3,3-Difluorocyclobutyl)ethynyl)pyridin-4-yl)-5-phenyloxazolidin-2-one] and `O=C1N[C@H](c2cccc(C#CC3CC(F)(F)C3)n2)[C@@H](c2ccccc2)O1` [Example 113, (4R,5R)-4-(6-((3,3-Difluorocyclobutyl)ethynyl)pyridin-2-yl)-5-phenyloxazolidin-2-one] cannot be ordered by EC50: greater than 3230 nM for the first, greater than 3230 nM for the second.

Compared with `CCC(O)CC#Cc1cncc([C@H]2NC(=O)O[C@@H]2c2cccc(F)c2)c1` (stereo partly shown) [Example 21], `CC(O)CC#Cc1cncc([C@H]2NC(=O)O[C@@H]2c2cccc(F)c2)c1` (stereo partly shown) [Example 42] is higher in EC50: 29.5 nM for the first, greater than 1610 nM for the second. The first is the more potent here.

First: CC1(C#Cc2cncc([C@H]3NC(=O)O[C@@H]3c3cccc(F)c3)c2)CCCCC1 [Example 87, (4R,5R)-5-(3-Fluorophenyl)-4-(5-((1-methylcyclohexyl)ethynyl)pyridin-3-yl)oxazolidin-2-one]
Second: O=C1N[C@H](c2cncc(C#CC3(F)CCCCC3)c2)[C@@H](c2cccc(F)c2)O1 [Example 91, (4R,5R)-4-(5-((1-Fluorocyclohexyl)ethynyl)pyridin-3-yl)-5-(3-fluorophenyl)oxazolidin-2-one]
The EC50 of the first is higher: greater than 10800 nM for the first, 96.2 nM for the second.

Compared with `CC(C)(C)C#Cc1cncc([C@H]2NC(=O)O[C@@H]2c2cccc(F)c2)c1` [Example 61], `CC(C)(C)OCC#Cc1cncc([C@H]2NC(=O)O[C@@H]2c2cccc(F)c2)c1` [Example 34] is lower in EC50: greater than 3230 nM for the first, 244 nM for the second.

Going from `O=C1N[C@H](c2cncc(C#CCC3CCO3)c2)[C@@H](c2cccc(F)c2)O1` (stereo partly shown) [Example 69] to `O=C1N[C@H](c2cncc(C#CCC3CCOC3)c2)[C@@H](c2cccc(F)c2)O1` (stereo partly shown) [Example 66], the EC50 falls from greater than 1610 nM to 15.2 nM.

`O=C1N[C@H](c2cncc(C#CCn3ncc4ccccc43)c2)[C@@H](c2cccc(F)c2)O1` [Example 49] and `O=C1N[C@H](c2cncc(C#CCc3ccccc3)c2)[C@@H](c2cccc(F)c2)O1` [Example 43] cannot be ordered by EC50: greater than 1610 nM for the first, greater than 1610 nM for the second.

Going from `CCCC(O)C#Cc1cncc([C@H]2NC(=O)O[C@@H]2c2cccc(F)c2)c1` (single isomer, unassigned) [Example 15] to `CCCC(C)C#Cc1cncc([C@H]2NC(=O)O[C@@H]2c2cccc(F)c2)c1` (stereo partly shown) [Example 23], the EC50 rises from 20.4 nM to 43.6 nM (2.1-fold). The first is the more potent here.

First: O=C1N[C@H](c2cncc(C#CCN3CCCCC3)c2)[C@@H](c2cccc(F)c2)O1 [Example 41]
Second: O=C1N[C@H](c2cncc(C#CCN3CCOCC3)c2)[C@@H](c2cccc(F)c2)O1 [Example 36]
The EC50 of the first is 2.5-fold higher: 730 nM for the first, 291 nM for the second. The second is the more potent here.

Going from `O=C1N[C@H](c2cncc(C#CCn3cccn3)c2)[C@@H](c2cccc(F)c2)O1` [Example 62] to `Cc1cnn(CC#Cc2cncc([C@H]3NC(=O)O[C@@H]3c3cccc(F)c3)c2)c1` [Example 54], the EC50 rises from 10.9 nM to 107 nM (9.8-fold). The first is the more potent here.

`CC(O)CCC#Cc1cncc([C@H]2NC(=O)O[C@@H]2c2cccc(F)c2)c1` (single isomer, unassigned) [Example 7] and `CC(C)CCC#Cc1cncc([C@H]2NC(=O)O[C@@H]2c2cccc(F)c2)c1` [Example 5] are within 1.5-fold of each other in EC50: 5.9 nM for the first, 4.7 nM for the second.

Going from `CCOCC#Cc1cncc([C@H]2NC(=O)O[C@@H]2c2cccc(F)c2)c1` [Example 53] to `CCCCC#Cc1cncc([C@H]2NC(=O)O[C@@H]2c2cccc(F)c2)c1` [Example 3], the EC50 falls from 16.2 nM to 2.2 nM (7.4-fold). The second is the more potent here.

Going from `N#Cc1cccc([C@H]2OC(=O)N[C@@H]2c2cncc(C#CC3CC(F)(F)C3)c2)c1` [Example 107, 3-((4R,5R)-4-(5-((3,3-Difluorocyclobutyl)ethynyl)pyridin-3-yl)-2-oxooxazolidin-5-yl)benzonitrile] to `O=C1N[C@H](c2cncc(C#CC3CC(F)(F)C3)c2)[C@@H](c2ccc(F)c(F)c2)O1` [Example 119, (4R,5R)-4-(5-((3,3-Difluorocyclobutyl)ethynyl)pyridin-3-yl)-5-(3,4-difluorophenyl)oxazolidin-2-one], the EC50 falls from 280 nM to 21.6 nM (13-fold).

Going from `O=C1N[C@H](c2cncc(C#CC3CCOCC3)c2)[C@@H](c2cc(F)ccc2F)O1` [Example 100, (4R,5R)-5-(2,5-Difluorophenyl)-4-(5-((tetrahydro-2H-pyran-4-yl)ethynyl)pyridin-3-yl)oxazolidin-2-one] to `O=C1N[C@H](c2cncc(C#CCC3CCOCC3)c2)[C@@H](c2cccc(F)c2)O1` [Example 11], the EC50 falls from 282 nM to 13.6 nM (21-fold). The second is the more potent here.

First: CC(=O)NCC#Cc1cncc([C@H]2NC(=O)O[C@@H]2c2cccc(F)c2)c1 [Example 45]
Second: CC(C)(O)CC#Cc1cncc([C@H]2NC(=O)O[C@@H]2c2cccc(F)c2)c1 [Example 40]
The EC50 of the first is higher: greater than 1610 nM for the first, 513 nM for the second. The second is the more potent here.

Compared with `CC(C)C(O)C#Cc1cncc([C@H]2NC(=O)O[C@@H]2c2cccc(F)c2)c1` (stereo partly shown) [Example 28], `CC(O)CCC#Cc1cncc([C@H]2NC(=O)O[C@@H]2c2cccc(F)c2)c1` (stereo partly shown) [Example 10] is 6.1-fold lower in EC50: 76.9 nM for the first, 12.6 nM for the second. The second is the more potent here.

Compared with `O=C1N[C@H](c2cncc(C#CC34CCCCC3C4)c2)[C@@H](c2cccc(F)c2)O1` (stereo partly drawn) [Example 90, (4R,5R)-4-(5-(Bicyclo[4.1.0]heptan-1-ylethynyl)pyridin-3-yl)-5-(3-fluorophenyl)oxazolidin-2-one], `O=C1N[C@H](c2cncc(C#CCC3CCCCC3)c2)[C@@H](c2cccc(F)c2)O1` [Example 13] is 23-fold lower in EC50: 377 nM for the first, 16.4 nM for the second.

Compared with `CCCCCC#Cc1cncc([C@H]2NC(=O)O[C@@H]2c2cccc(F)c2)c1` [Example 51], `COCCC#Cc1cncc([C@H]2NC(=O)O[C@@H]2c2cccc(F)c2)c1` [Example 17] is 2.9-fold higher in EC50: 8.1 nM for the first, 23.2 nM for the second. The first is the more potent here.

Compared with `O=C1N[C@H](c2cncc(C#CC(O)CC3CC3)c2)[C@@H](c2cccc(F)c2)O1` (single isomer, unassigned) [Example 74], `O=C1N[C@H](c2cncc(C#CC(O)C3CC3)c2)[C@@H](c2cccc(F)c2)O1` (stereo partly shown) [Example 58] is 7.4-fold higher in EC50: 27.4 nM for the first, 204 nM for the second. The first is the more potent here.

Compared with `O=C1N[C@H](c2cncc(C#CCN3CCCC3=O)c2)[C@@H](c2cccc(F)c2)O1` [Example 47], `O=C1N[C@H](c2cncc(C#CCN3CC(F)(F)C3)c2)[C@@H](c2cccc(F)c2)O1` [Example 70, (4R,5R)-4-(5-(3-(3,3-Difluoroazetidin-1-yl)prop-1-yn-1-yl)pyridin-3-yl)-5-(3-fluorophenyl)oxazolidin-2-one] is lower in EC50: greater than 1610 nM for the first, 29.6 nM for the second. The second is the more potent here.

Compared with `O=C1N[C@H](c2cncc(C#CCOC3CCCCO3)c2)[C@@H](c2cccc(F)c2)O1` (stereo partly shown) [Example 38], `O=C1N[C@H](c2cncc(C#CCC3COC3)c2)[C@@H](c2cccc(F)c2)O1` [Example 68] is 1.9-fold higher in EC50: 498 nM for the first, 932 nM for the second. The first is the more potent here.

Going from `O=C1N[C@H](c2cncc(C#CC(O)CC3CC3)c2)[C@@H](c2cccc(F)c2)O1` (stereo partly drawn) [Example 72, (4R,5R)-4-(5-(4-Cyclopropyl-3-hydroxybut-1-yn-1-yl)pyridin-3-yl)-5-(3-fluorophenyl)oxazolidin-2-one] to `CCC(O)CC#Cc1cncc([C@H]2NC(=O)O[C@@H]2c2cccc(F)c2)c1` (single isomer, unassigned) [Example 19], the EC50 rises from 16.6 nM to 27.6 nM (1.7-fold).

Going from `CCSCC#Cc1cncc([C@H]2NC(=O)O[C@@H]2c2cccc(F)c2)c1` [Example 2] to `CCC(O)CC#Cc1cncc([C@H]2NC(=O)O[C@@H]2c2cccc(F)c2)c1` (single isomer, unassigned) [Example 20], the EC50 rises from 2 nM to 60.8 nM (30-fold). The first is the more potent here.

Compared with `O=C1N[C@H](c2cncc(C#CC34CCC(CC3)CC4)c2)[C@@H](c2cccc(F)c2)O1` [Example 84, (4R,5R)-4-(5-(Bicyclo[2.2.2]octan-1-ylethynyl)pyridin-3-yl)-5-(3-fluorophenyl)oxazolidin-2-one], `O=C1N[C@H](c2cncc(C#CC3CCC(F)(F)CC3)c2)[C@@H](c2cccc(F)c2)O1` [Example 92, (4R,5R)-4-(5-((4,4-Difluorocyclohexyl)ethynyl)pyridin-3-yl)-5-(3-fluorophenyl)oxazolidin-2-one] is 72-fold lower in EC50: 3670 nM for the first, 50.9 nM for the second.

First: O=C1N[C@H](c2cncc(C#CC3CC3)c2)[C@@H](c2cccc(Cl)c2Cl)O1 [Example 125, (4R,5R)-4-(5-(Cyclopropylethynyl)pyridin-3-yl)-5-(2,3-dichlorophenyl)oxazolidin-2-one]
Second: O=C1N[C@H](c2cncc(C#CCC3CC3(F)F)c2)[C@@H](c2cccc(F)c2)O1 (stereo partly shown) [Example 29]
The EC50 of the first is 2.3-fold higher: 179 nM for the first, 77.5 nM for the second.

Compared with `Cc1cn(CC#Cc2cncc([C@H]3NC(=O)O[C@@H]3c3cccc(F)c3)c2)cn1` [Example 71, (4R,5R)-5-(3-Fluorophenyl)-4-(5-(3-(4-methyl-M-imidazol-1-yl)prop-1-yn-1-yl)pyridin-3-yl)oxazolidin-2-one], `N#CCCC#Cc1cncc([C@H]2NC(=O)O[C@@H]2c2cccc(F)c2)c1` [Example 35] is lower in EC50: greater than 3230 nM for the first, 255 nM for the second.

Compared with `O=C1N[C@H](c2cncc(C#CCC3(O)CCC3)c2)[C@@H](c2cccc(F)c2)O1` [Example 46], `O=C1N[C@H](c2cncc(C#CCOc3ccccc3)c2)[C@@H](c2cccc(F)c2)O1` [Example 24] is lower in EC50: greater than 1610 nM for the first, 43.9 nM for the second.

Work on `O=C1N[C@H](c2cc(C#CC3CC(F)(F)C3)cnc2F)[C@@H](c2cccc(F)c2)O1` [Example 111, (4R,5R)-4-(5-((3,3-Difluorocyclobutyl)ethynyl)-2-fluoropyridin-3-yl)-5-(3-fluorophenyl)oxazolidin-2-one] yielded an EC50 of 104 nM.

Source: patent US9688669B2, “Oxazolidinones as modulators of mGluR5” (BRISTOL-MYERS SQUIBB COMPANY, priority 2013, dated 2017)
